Source: patent publication US4855497A, “Novel diamine derivatives” (Chugai Seiyaku Kabushiki Kaisha, priority 1985, dated 1989)

Columns and labels:
[1] = tested on: Chloroform-Induced Arrythmia; assay: Activity against chloroform-induced arrythmia in rats (prevention of ventricular fibrillation); type: in vivo, Sprague-Dowley male rats; details: for Percent prevention (ventricular fibrillation), starved: starved rats
Experimental: Activity Aganist Chloroform-Induced Arrythmia in Rats
The following procedures were substantially in accordance with the method of Erker and Baker (Arch. Int. Pharmacodyn., 243, 97-102, 1980). Aminophylline (20 mg/kg) was injected intramuscularly into two groups of Sprague-Dowley male rats (3-4 wk. old, 7 animals per group) weighing about 100 g on average, one group having been starved for 24 hours and the other group not starved. Thirty minutes after the injection, the animals were put into a 4,000-ml glass beaker with a lid that contained gauze impregnated with […] of chloroform. Fifty minutes later, the animals were recovered from the beaker and their chests were incised to check their hearts for the presence of ventricular fibrillation. The features of their cardiac rhythm were examined by the electrocardiogram. When no distinct fibrillation was observed, the heart was touched with tweezers. The heart was identified as fibrillar when rapid irregular twitchings occured on the surface of ventricles and continued for at least 5 seconds after chest incision or mechanical stimulation.
Selected compounds suspended in 3% gum arabic were administered in various doses to the rats either intraperitoneally (i.P.) or perorally (P.O.) 30 minutes prior to treatment with chloroform. The percent prevention of ventricular fibrillation was determined for each rat. Only a 3% gum arabic solution was administered to the control group.

[2] = tested on: Aconitine-Induced Arrythmia; assay: Activity against aconitine-induced arrythmia in rats; type: in vivo, Sprague-Dowley male rats; details: aconitine 1 μg/kg/min; for Time required for ventricular extrasystole to occur: untreated 14.3 min; for Time required for ventricular fibrillation to occur: untreated 35.3 min
Experimental: Activity Against Aconitine-Induced Arrythmia in Rats
Using Sprague-Dowley male rats (9-10 wk. old, two animals per group) weighing about 350 g on average, the following experiment was conducted substantially in compliance with the method of Vargftig et al. (Europ. J. Pharmacol., 6, 49, 1969).
The animals were anesthetized by intraperitoneal administration of 1 g/kg of urethane. A polyethylene cannula was inserted into both the femoral artery and vein of each animal; the drug was administered through the femoral vein while the blood pressure was measured at the femoral artery.
While the aconitine solution was continuously infused into the vein at a rate of 1 μg/kg/min, a selected compound was administered intravenously at 5-minute intervals. In order to prevent the aconitine-induced dyspnea from interfering with the experimental results, 0.2 mg/kg of d-tubocurarine was administered intravenously to each animal, which then was subjected to artificial respiration through a cannula inserted into the trachea (80 breathings/min, with 4 ml of air supplied by a single ventillation).
Identification of arrythmia was made by the ECG in the second induction period; the appearance of a QRS complex with sharply downward deflections was used as an indication of ventricular arrythmia and observation was continued until ventricular fibrillation appeared. The results are shown in Table 3 in terms of the times required for ventricular extrasystole and ventricular fibrillation to occur.

[3] = tested on: Ouabain-Induced Arrythmia; assay: Activity against ouabain-induced arrythmia in guinea pigs; type: in vivo, Hartly male guinea pigs; details: ouabain 5 μg/kg/min; for Time required for ventricular extrasystole to occur: untreated 28.5 min; for Time required for ventricular fibrillation to occur: untreated 35.1 min; for Time required for cardiac arrest to occur: untreated 41.2 min
Experimental: Activity Against Ouabain-Induced Arrythmia in Guinea Pigs
Hartly male guinea pigs (5-6 wk. old, two animals per group) weighing about 350 g on average were anesthetized by intraperitoneal administration of 1.2 g/kg of urethane. A polyethylene cannula was inserted into both the cervical vein and the carotid artery; the drug was administered through the cervical vein while the blood pressure was measured at the carotid artery. A selected test compound was administered 5 minutes before the sustained intravenous infusion of the ouabain solution (5 μg/kg/min) as described in J. Pharmacol. Exp. Ther., 136, 227, 1962). Identification of arrythmia was made by the ECG in the second induction period; the appearance of a QRS complex with sharply downward deflictions was used as an indication of ventricular arrythmia and observation was continued until ventricular fibrillation and cardiac arrest appeared. The results are shown in Table 4 in terms of the times required for ventricular extrasystole, ventricular fibrillation and cardiac arrest to occur.

[4] = tested on: Acetylcholine; assay: Activity against acetylcholine (I): inhibition of acetylcholine-induced contraction of isolated ilea; set-up: species or system SD/Slc male rats; details: 10^-4 M; 10^-6 M acetylcholine; isolated rat ilea
Experimental: Activity Against Acetylcholine (I)
SD/Slc male rats (10-mo. old, four animals per group) were clubbed dead and their ilea were immediately extracted. The ilea were suspended under a load of 1 g in a Krebs-Henseleit solution oxygenated with a mixture of 95% O2 +5% CO2 at 27° C., and the ileal reaction was measured isotonically.
The anti-cholinergic activity of each of the compounds tested was determined in terms of percent inhibition against the contractive reaction of 10^-6 M of acetylcholine (causing 60-70% of the maximum contractive reaction of acetylcholine).

[5] = tested on: Acetylcholine; assay: Activity against acetylcholine (II): inhibition of acetylcholine-induced saliva excretion; type: in vivo, Beagle dogs; details: dose 100 (g), intra-arterially, 1 min before acetylcholine
Experimental: Activity Against Acetylcholine (II)
Beagle dogs were anesthetized by intravenous administration of pentobarbital (35 mg/kg). The following experiment was conducted in accordance with the method of Sato et al. (Tohoku J. Exp. Med., 108, 377-388, 1982). The left lower jaw of each animal was incised to identify the submandibular gland, the duct through which saliva was excreted from that gland, and the artery nourishing the same gland. A polyethylene tube was first inserted into the excretory duct. Then, a cannula was inserted into the submandibular gland controlling artery and said gland was perfused with the arterial blood drawn from the femoral artery. The tube from the duct was connected to a drop counter and the number of drops of excreted saliva was recorded. The excretion of saliva was induced by intra-arterial administration of acetylcholine.
One minute before the acetylcholine administration, […] (0.1 ml) of a selected compound was administered intra-arterially and its ability to inhibit saliva excretion was examined.

[6] = tested on: Blood Sugar Level; assay: Effect on blood sugar level; type: in vivo, SD/Slc male rats; details: starved overnight
Experimental: Effect on Blood Sugar Level
After starving SD/Slc male rats (body weight, 250 g; 6 animals per group) overnight, 20-μl blood samples were drawn from the tail vein of each rat while it was not anesthetized. Records were taken of the sugar level in each blood sample. A selected compound of the present invention was suspended in 3% gum arabic and the suspension was administered perorally to each rat in an amount of 50 or 200 mg/kg. At 2, 4 and 6 hours of the administration, blood samples were taken and their blood sugar levels were measured. Measurements of blood sugar levels were conducted with a New Blood Sugar Test (Boehringer, Mannheim).
To the control group, a 3% gum arabic solution was administered, and diisopyramide was administered as a comparative drug.

[7] = tested on: sleeping induced by hexobarbital; assay: Effect on the time of sleeping induced by hexobarbital; type: in vivo, ddY/Slc male rats; details: H3PO4 salt, untreated 53.9 ± 2.7
Experimental: Effect on the Time of Sleeping Induced by Hexobarbital
A selected compound of the present invention was administered perorally to ddY/Slc male rats (5-6 wk. old, 10 animals per group) in an amount of 50 or 100 mg/kg. One hour later, […] of hexobarbital was administered intraperitoneally to each animal, thereby causing the loss of orthogonal reflex. The time required for the recovery of orthogonal reflex was measured for each animal.
As comparative drugs, 50 or 100 mg/kg of disopyramide and 5 mg/kg of diazepam were administered perorally.

[8] = cited from earlier work

## Cc1cccc(C)c1NC(=O)CCNCCN(C(C)C)C(C)C [Compound No. 1, 3-(diisopropylaminoethylamino)-2',6'-dimethylpropionanilide]
[1]; Rattus norvegicus, ip, 0.5 h, not starved rats, 25 mg/kg i.P., 30 min prior to chloroform, read-out: Percent prevention (ventricular fibrillation), not starved
  responders at 25 mg/kg: 85.7%
[1]; Rattus norvegicus, po, 0.5 h, not starved rats, 1 mg/kg P.O., 30 min prior to chloroform, read-out: Percent prevention (ventricular fibrillation), not starved
  responders at 1 mg/kg: 85.7%
[1]; 1 mg/kg P.O., 30 min prior to chloroform
  Percent prevention (ventricular fibrillation), starved: 85.7%
[2]; 5 mg/kg intravenously
  Time required for ventricular extrasystole to occur: 45.2 min
  Time required for ventricular fibrillation to occur: > 120.0 min
[3]; 5 mg/kg via cervical vein
  Time required for ventricular extrasystole to occur: 42.1 min
  Time required for ventricular fibrillation to occur: 45.4 min
  Time required for cardiac arrest to occur: 51.3 min
[4]
  Percent inhibition (contractive reaction of acetylcholine): 20%
[5]
  Percent inhibition (saliva excretion): 0%
[6]; 50 mg/kg perorally
  Blood sugar level, 0 hr (mean ± S.E.): 68.4 ± 4.0 mg/dL
  Blood sugar level, 2 hr (mean ± S.E.): 63.0 ± 4.1 mg/dL
  Blood sugar level, 4 hr (mean ± S.E.): 58.1 ± 2.2 mg/dL
  Blood sugar level, 6 hr (mean ± S.E.): 59.9 ± 2.6 mg/dL
[6]; 200 mg/kg perorally
  Blood sugar level, 0 hr (mean ± S.E.): 83.7 ± 3.0 mg/dL
  Blood sugar level, 2 hr (mean ± S.E.): 55.4 ± 5.7 mg/dL
  Blood sugar level, 4 hr (mean ± S.E.): 73.4 ± 7.2 mg/dL
  Blood sugar level, 6 hr (mean ± S.E.): 71.2 ± 3.2 mg/dL

## CC(C)N(CCC(C(N)=O)(c1ccccc1)c1ccccn1)C(C)C (centres unmarked) [Disopyramide, reference compound]
[1]; Rattus norvegicus, po, 0.5 h, read-out: Percent prevention (ventricular fibrillation), not starved
  responders at 10 mg/kg: 37.6%
[1]; 10 mg/kg P.O., 30 min prior to chloroform
  Percent prevention (ventricular fibrillation), starved: 49.6%
[2]; 10 mg/kg intravenously
  Time required for ventricular extrasystole to occur: 22.6 min
  Time required for ventricular fibrillation to occur: 78.2 min
[3]; 10 mg/kg via cervical vein
  Time required for ventricular extrasystole to occur: 41.1 min
  Time required for ventricular fibrillation to occur: 54.3 min
  Time required for cardiac arrest to occur: 59.6 min
[4]
  Percent inhibition (contractive reaction of acetylcholine): 89%
[5]
  Percent inhibition (saliva excretion): 41.7%
[7]; 50 mg/kg perorally
  Time of sleeping (mean ± S.E.): 59.8 ± 3.3 min
[7]; 100 mg/kg perorally
  Time of sleeping (mean ± S.E.): 53.5 ± 2.4 min
[6]; 50 mg/kg perorally
  Blood sugar level, 0 hr (mean ± S.E.): 75.2 ± 5.9 mg/dL
  Blood sugar level, 2 hr (mean ± S.E.): 46.9 ± 1.7 mg/dL
  Blood sugar level, 4 hr (mean ± S.E.): 41.9 ± 2.9 mg/dL
  Blood sugar level, 6 hr (mean ± S.E.): 45.8 ± 2.0 mg/dL
[6]; 200 mg/kg perorally
  Blood sugar level, 0 hr (mean ± S.E.): 64.5 ± 5.6 mg/dL
  Blood sugar level, 2 hr (mean ± S.E.): 41.7 ± 3.1 mg/dL
  Blood sugar level, 4 hr (mean ± S.E.): 29.7 ± 3.2 mg/dL
  Blood sugar level, 6 hr (mean ± S.E.): 36.9 ± 2.6 mg/dL
[8]; clinical
  action on the cardiac muscles: inhibitory action on the cardiac muscles
[8]; clinical, presumably from anti-cholinergic action
  undesirable side effects: hydrodipsia, anuresis, constipation, vertigo, blurring of vision and vomiting
[8]; patients with prostatomegaly and neurotic bladders due to diabetes
  incidence of anuresis: High incidence of anuresis
[8]; peroral, clinical
  activity in peroral administration: sustained activity
